# From US20060069132A1, “Azolecarboxamide herbicides” (priority 2004, published 2006)
# What was measured:
# blackgrass [1] = assay: Test B postemergence herbicide test; assay type: in vivo, Alopecurus myosuroides
# Outline: (§1)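 Paddy species grown to the 2-leaf stage under flooding; blackgrass sprayed postemergence at 2–18 cm (1- to 4-leaf stage). Plants kept in a greenhouse for 13 to 15 days, then visually rated against controls on 0 (no effect) to 100 (complete control).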
# wild oat [2] = assay: Test C postemergence herbicide test; assay type: in vivo, Avenafatua
# Procedure: (§2) At the same time, plants selected from these crop and weed species and also winter barley (Hordeum vulgare L.), blackgrass (Alopecurus myosuroides Huds.), canarygrass (Phalaris minor Retz.), chickweed (Stellaria media (L.) Vill.), downy bromegrass (Bromus tectorum L.), green foxtail (Setaria viridis (L.) Beauv.), Italian ryegrass (Lolium multiflorum Lam.), wheat (Triticum aestivum L.), wild oat (Avenafatua L.) and windgrass (Apera spica-venti (L.) Beauv.) were treated with postemergence applications of some of the test chemicals formulated in the same manner. Plants ranged in height from 2 to 18 cm (1- to 4-leaf stage) for postemergence treatments. Plant species in the flooded paddy test consisted of rice (Oryza sativa), smallflower umbrella sedge (Cyperus difformis L.), ducksalad (Heteranthera limosa (Sw.) Willd.) and barnyardgrass (Echinochloa crus-galli (L.) Beauv.) grown to the 2-leaf stage for testing. Treated plants and controls were maintained in a greenhouse for 12 to 14 days, after which time all species were compared to controls and visually evaluated. Plant response ratings, summarized in Table C, are based on a scale of 0 to 100 where 0 is no effect and 100 is complete control. A dash (-) response means no test result.
# windgrass = assay: Test C postemergence herbicide test; assay type: in vivo, Apera spica-venti
# Procedure: as §2
# wheat [3] = assay: Test B postemergence herbicide test; assay type: in vivo, Triticum aestivum; design: key to Wheat plant response rating: 0 = no effect, 100 = complete control
# Outline: (§3)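 Each value is a visual 0–100 response rating taken against controls 13 to 15 days after treatment in the greenhouse. Plants received formulated chemical postemergence at the 1- to 4-leaf stage or, in flooded paddy, at the 2-leaf stage.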
# ducksalad = assay: Test B flooded paddy test; assay type: in vivo, Heteranthera limosa; conditions: 1000 g ai/ha, scale 0 to 100 (0 no effect, 100 complete control)
# Outline: as §1
# barnyardgrass [4] = assay: Test B flooded paddy test; assay type: in vivo, Echinochloa crus-galli; conditions: 1000 g ai/ha, scale 0 to 100 (0 no effect, 100 complete control)
# Outline: as §1
# rice = assay: Test B flooded paddy test; assay type: in vivo, Oryza sativa; conditions: 1000 g ai/ha, scale 0 to 100 (0 no effect, 100 complete control)
# Outline: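 Plants grow to 1- to 4-leaf stage (2–18 cm) for postemergence spraying, or to 2-leaf stage for the paddy test. Formulated compound is applied. Greenhouse holding lasts 13–15 days. Response is scored visually relative to controls, 0 no effect to 100 complete control; a dash means no result.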
# [5] = tested on: small flower umbrella sedge; assay: Test B flooded paddy test; assay type: in vivo, Cyperus difformis; conditions: 1000 g ai/ha, scale 0 to 100 (0 no effect, 100 complete control)
# Outline: as §1
# large crabgrass = assay: Test B pre-/postemergence herbicide test; assay type: in vivo, Digitaria sanguinalis
# Outline: (§4)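 Pre: seeds sown, then sprayed. Post: 1–4-leaf plants (2–18 cm) sprayed at the same time. Paddy: flooded, treated at 2-leaf stage. Formulation: non-phytotoxic solvent with surfactant. Greenhouse 13–15 days; visual 0–100 score relative to controls.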
# wild oat [6] = assay: Test B postemergence herbicide test; assay type: in vivo, Avena fatua
# Outline: as §3
# green foxtail = assay: Test C postemergence herbicide test; assay type: in vivo, Setaria viridis
# Procedure: as §2
# barnyardgrass [7] = assay: Test B pre-/postemergence herbicide test; assay type: in vivo, Echinochloa crus-galli; conditions: for Barnyardgrass plant response rating: Postemergence, scale 0 (no effect) to 100 (complete control)
# Outline: (§5)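 Test chemicals in a non-phytotoxic solvent mixture with surfactant were applied preemergence to seeded species and postemergence to plants 2-18 cm tall (1- to 4-leaf stage); rice and barnyardgrass were also tested in a flooded paddy at the 2-leaf stage. Visual rating versus controls after 13-15 days in greenhouse, scale 0 (no effect) to 100 (complete control).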
# corn = assay: Test B pre-/postemergence herbicide test; assay type: in vivo, Zea mays
# Outline: as §4
# cocklebur = assay: Test B pre-/postemergence herbicide test; assay type: in vivo, Xanthium strumarium
# Outline: as §5
# canarygrass = assay: Test C postemergence herbicide test; assay type: in vivo, Phalaris minor
# Procedure: as §2
# velvetleaf = assay: Test B pre-/postemergence herbicide test; assay type: in vivo, Abutilon theophrasti
# Outline: as §4
# Surinam grass = assay: Test B pre-/postemergence herbicide test; assay type: in vivo, Urochloa decumbens
# Outline: as §4
# Italian ryegrass = assay: Test C postemergence herbicide test; assay type: in vivo, Lolium multiflorum
# Procedure: as §2
# blackgrass [8] = assay: Test C postemergence herbicide test; assay type: in vivo, Alopecurus myosuroides
# Procedure: as §2
# lambsquarters = assay: Test B pre-/postemergence herbicide test; assay type: in vivo, Chenopodium album
# Outline: as §4
# morningglory = assay: Test B pre-/postemergence herbicide test; assay type: in vivo, Ipomoea coccinea
# Outline: as §5
# winter barley = assay: Test C postemergence herbicide test; assay type: in vivo, Hordeum vulgare
# Procedure: as §2
# downy bromegrass = assay: Test C postemergence herbicide test; assay type: in vivo, Bromus tectorum
# Procedure: as §2
# giant foxtail = assay: Test B pre-/postemergence herbicide test; assay type: in vivo, Setaria faberi
# Outline: as §4
# wheat [9] = assay: Test C postemergence herbicide test; assay type: in vivo, Triticum aestivum
# Procedure: as §2
# pigweed = assay: Test B pre-/postemergence herbicide test; assay type: in vivo, Amaranthus retroflexus
# Outline: as §4
# [10] = Postemergence, 500 g ai/ha, scale 0 (no effect) to 100 (complete control)
# [11] = postemergence, 125 g ai/ha, scale 0 to 100
# [12] = Postemergence, 500 g ai/ha, scale 0 to 100, 0 no effect, 100 complete control
# [13] = postemergence, 62 g ai/ha, scale 0 to 100
# [14] = 125 g ai/ha, 0 is no effect, 100 is complete control, preemergence
# [15] = Postemergence, 250 g ai/ha, scale 0 to 100, 0 no effect, 100 complete control
# [16] = Postemergence, 500 g ai/ha, scale 0 to 100
smiles,measurement,setting,value
C=CCN(CC=C)C(=O)c1ccc(F)c(NC(=O)c2cc(C(C)(C)C)nn2CC)c1 [Compound 431],Blackgrass plant response rating,blackgrass [1]; [10],50
same,Blackgrass plant response rating,blackgrass [1]; [11],30
same,"Plant response rating, Oat, Wild",wild oat [2]; [12],65
same,"Plant response rating, Oat, Wild",wild oat [2]; [11],55
same,"Plant response rating, Oat, Wild",wild oat [2]; [13],45
same,"Plant response rating, Windgrass",windgrass; [12],60
same,"Plant response rating, Windgrass",windgrass; [11],40
same,"Plant response rating, Windgrass",windgrass; [13],40
same,Wheat plant response rating,"wheat [3]; 500 g ai/ha, scale 0 to 100, 0 no effect, 100 complete control, preemergence",10
same,Wheat plant response rating,wheat [3]; [10],30
same,Wheat plant response rating,wheat [3]; [11],30
same,Ducksalad plant response rating,ducksalad,80
same,Barnyardgrass plant response rating,barnyardgrass [4],60
same,Rice plant response rating,rice,30
same,"Sedge, Umbrella plant response rating",[5],80
same,"Plant response rating (0 to 100 scale), Crabgrass, Large",large crabgrass; [14],60
same,"Crabgrass, Large plant response rating",large crabgrass; [10],30
same,"Crabgrass, Large plant response rating",large crabgrass; [11],20
same,"Oat, Wild plant response rating",wild oat [6]; [10],50
same,"Oat, Wild plant response rating",wild oat [6]; [11],30
same,"Plant response rating, Foxtail, Green",green foxtail; [15],60
same,"Plant response rating, Foxtail, Green",green foxtail; [12],65
same,"Plant response rating, Foxtail, Green",green foxtail; [11],60
same,"Plant response rating, Foxtail, Green",green foxtail; [13],45
same,"Plant response rating (0 to 100 scale), Barnyardgrass",barnyardgrass [7]; [14],10
same,Barnyardgrass plant response rating,barnyardgrass [7]; 125 g ai/ha,10
same,Barnyardgrass plant response rating,barnyardgrass [7]; 500 g ai/ha,20
same,"Plant response rating (0 to 100 scale), Corn",corn; [14],0
same,Corn plant response rating,corn; [10],20
same,Corn plant response rating,corn; [11],20
same,"Plant response rating (0 to 100 scale), Cocklebur",cocklebur; [14],0
same,Cocklebur plant response rating,cocklebur; [10],60
same,Cocklebur plant response rating,cocklebur; [11],30
same,"Plant response rating, Canarygrass",canarygrass; [15],60
same,"Plant response rating, Canarygrass",canarygrass; [12],60
same,"Plant response rating, Canarygrass",canarygrass; [11],45
same,"Plant response rating, Canarygrass",canarygrass; [13],40
same,"Plant response rating (0 to 100 scale), Velvetleaf",velvetleaf; [14],20
same,Velvetleaf plant response rating,velvetleaf; [10],40
same,Velvetleaf plant response rating,velvetleaf; [11],20
same,"Plant response rating (0 to 100 scale), Surinam Grass",Surinam grass; [14],10
same,Surinam Grass plant response rating,Surinam grass; [10],30
same,Surinam Grass plant response rating,Surinam grass; [11],20
same,"Plant response rating, Ryegrass, Italian",Italian ryegrass; [12],55
same,"Plant response rating, Ryegrass, Italian",Italian ryegrass; [11],45
same,"Plant response rating, Ryegrass, Italian",Italian ryegrass; [13],40
same,Blackgrass plant response rating,blackgrass [8]; [16],60
same,"Plant response rating, Blackgrass",blackgrass [8]; [15],60
same,"Plant response rating, Blackgrass",blackgrass [8]; [11],55
same,"Plant response rating, Blackgrass",blackgrass [8]; [13],45
same,"Plant response rating (0 to 100 scale), Lambsquarters",lambsquarters; [14],60
same,Lambsquarters plant response rating,lambsquarters; [10],60
same,Lambsquarters plant response rating,lambsquarters; [11],40
same,"Plant response rating (0 to 100 scale), Morningglory",morningglory; [14],0
same,Morningglory plant response rating,morningglory; [10],70
same,Morningglory plant response rating,morningglory; [11],40
same,"Barley, Winter plant response rating",winter barley; [16],60
same,"Plant response rating, Barley, Winter",winter barley; [15],45
same,"Plant response rating, Barley, Winter","winter barley; postemergence, 125 g ai/ha, scale 0 to 100 (0 no effect, 100 complete control)",40
same,"Plant response rating, Barley, Winter","winter barley; postemergence, 62 g ai/ha, scale 0 to 100 (0 no effect, 100 complete control)",40
same,"Plant response rating, Bromegrass, Downy",downy bromegrass; [15],55
same,"Plant response rating, Bromegrass, Downy",downy bromegrass; [12],60
same,"Plant response rating, Bromegrass, Downy",downy bromegrass; [11],45
same,"Plant response rating, Bromegrass, Downy",downy bromegrass; [13],40
same,"Plant response rating (0 to 100 scale), Foxtail, Giant",giant foxtail; [14],50
same,"Foxtail, Giant plant response rating",giant foxtail; [10],30
same,"Foxtail, Giant plant response rating",giant foxtail; [11],20
same,"Plant response rating, Wheat",wheat [9]; [12],45
same,"Plant response rating, Wheat",wheat [9]; [11],40
same,"Plant response rating, Wheat",wheat [9]; [13],40
same,"Plant response rating (0 to 100 scale), Pigweed",pigweed; [14],40
same,Pigweed plant response rating,pigweed; [10],70
same,Pigweed plant response rating,pigweed; [11],50
